Reference: patent publication US20250000835A1, “SYNERGIES OF 1- BETA-CARYOPHYLLENE, CANNABIDIOL AND TRIBUTYRIN; 2- RETINYL PALMITATE, BETA-CARYOPHYLLENE AND CANNABIDIOL; 3- RETINYL PALMITATE AND BETA-CARYOPHYLLENE IN CONTROLING INFLAMMATION, METABOLIC HEALTH, INSULIN SENSITIVITY/ GLYCEMIC - GLUCOSE UPTAKE & MANAGEMENT, AND FATTY LIVER/ NAFLD” (FLG Sciences, LLC, priority 2022, published 2025)

Assays:
Type in all cases: cell-based
[1] = test system: phosphorylated p65/NF-κB; assay: Inflammatory signaling (phosphorylated NF-kB) by Western blotting, C2C12 muscle cells; settings: vs DMSO control
Experimental: (§1) There were two different treatment experiments including: Cells treated with compounds 1-5 above for 3 hours; Cells treated with compounds 1-5 above for 12 hours with a concomitant TNF-alpha treatment (15 ng/mL); Cell treatments were performed using C2C12 myotubes (muscle cells), and AML-12 cells (liver cells).
(§2) There are also combination formulations, where the following combination formulations were tested: 6) Control or “vehicle” (DMSO only); 7) Vitamin A, or “VitA” (1.2 μM)+Beta-caryophyllene (100 ng/mL)+Tributyrin (10 μM); 8) Vitamin A, or “VitA” (1.2 μM)+Beta-caryophyllene (100 ng/mL)+CBD (95 ng/ml); 9) Beta-caryophyllene (100 ng/mL)+CBD (95 ng/mL)+Tributyrin (10 μM); 10) Vitamin A, or “VitA” (1.2 μM)+Beta-caryophyllene (100 ng/mL).
(§3) As with single ingredients, two different treatment experiments occurred with these combos including: Cells treated with compounds 1-5 above for 3 hours. Cells treated with compounds 1-5 above for 12 hours with a concomitant TNF-alpha treatment (15 ng/ml)
(§4) All cells were grown to confluence using cell-specific media and additives.
(§5) The day of treatment, culture media was spiked with the appropriate ingredients (these are termed “treatment media”)
(§6) After either the 3-h or 12-h treatments described above, treatment media was removed, cells were rinsed with 1× phosphate-buffered saline, and general cell lysis buffer (Tris-based with detergent) was used to lyse cells
(§7) Cells were scraped off the plate with a rubber policeman in the lysis buffer, the slurry was placed in 1.7 mL tubes, and lysates were frozen at −80° C. until the respective assays discussed below.
(§8) There are n=5-6 replicates per treatment condition.
SOD2, SOD1, phosphorylated p65/NF-κB, pro-caspase 1, and NLRP3 were assayed using Western blotting methods.

[2] = molecular target: T1, PPARγ (Mus musculus, UniProt P37238); assay: PPARγ DNA binding activity, AML-12 liver cells; settings: vs DMSO control
T1 construct: endogenous in cells; host or cells: C2C12 myotubes (muscle cells)
T1 sequence (P37238 1-505): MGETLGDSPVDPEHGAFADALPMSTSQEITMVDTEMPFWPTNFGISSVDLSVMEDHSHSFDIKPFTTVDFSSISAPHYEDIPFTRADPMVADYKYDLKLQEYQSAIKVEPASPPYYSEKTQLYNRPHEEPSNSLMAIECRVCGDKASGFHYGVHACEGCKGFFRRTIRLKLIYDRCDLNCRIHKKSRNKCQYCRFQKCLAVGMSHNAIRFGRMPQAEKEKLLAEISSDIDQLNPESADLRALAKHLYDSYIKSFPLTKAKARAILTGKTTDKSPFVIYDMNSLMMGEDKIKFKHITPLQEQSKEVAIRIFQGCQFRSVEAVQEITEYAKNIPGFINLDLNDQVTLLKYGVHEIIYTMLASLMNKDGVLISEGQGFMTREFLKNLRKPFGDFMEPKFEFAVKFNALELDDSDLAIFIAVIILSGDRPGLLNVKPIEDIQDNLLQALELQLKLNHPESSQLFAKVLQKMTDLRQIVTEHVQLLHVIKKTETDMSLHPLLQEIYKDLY
Experimental: as §1, §2, §3, §4, §5, §6, §7, §8
(§9) PPARγ DNA binding activity was assessed using a plate that was pre-coated with a PPAR-gamma consensus binding sequence. Thereafter, antibody-based methods were used to assess the amount of bound transcription factor, and data were normalized to total protein loaded in the assay.

[3] = test system: SOD2; assay: SOD2 protein levels by Western blotting, C2C12 muscle cells; settings: 3 h and 12 h with TNF-alpha, treatment not told apart in text, vs DMSO control
Experimental: as §1, §2, §3, §4
(§10) The day of treatment, culture media was spiked with the appropriate ingredients (these are termed “treatment media”) […]

[4] = molecular target: T1, PPARγ; assay: PPARγ DNA binding activity, C2C12 muscle cells; settings: vs DMSO control
Experimental: as §1, §2, §3, §4, §5, §6, §7, §8, §9

[5] = test system: C2C12 myotubes (muscle cells); assay: Cellular antioxidant (AOx) capacity, Cu2+ ion conversion assay, C2C12 muscle cells; settings: vs DMSO control
Experimental: as §1, §2, §3, §4, §10
(§11) Total antioxidant capacity was assessed using a Cu2+ ion is conversion assay.

[6] = test system: AML-12 liver cells; assay: Cellular antioxidant (AOx) capacity, Cu2+ ion conversion assay, AML-12 liver cells; settings: 3 h treatment, vs DMSO control, CBD 95 ng/ml, VitA 1.2 μM, tributyrin 10 μM, beta-caryophyllene 100 ng/ml
Experimental: as §1, §2, §3, §4, §10, §11

[7] = test system: C2C12 myotubes (muscle cells); assay: Cellular glucose levels, colorimetric glucose oxidase assay, C2C12 muscle cells; settings: 12 h treatment with TNF-alpha (15 ng/mL), vs DMSO control
Experimental: as §1, §2, §3, §4, §10

[8] = test system: AML-12 liver cells; assay: Cellular glucose levels, colorimetric glucose oxidase assay, AML-12 liver cells; settings: 12 h treatment with TNF-alpha (15 ng/mL), vs DMSO control
Experimental: as §1, §2, §3, §4, §10

[9] = 12 h treatment with TNF-alpha (15 ng/mL)

Row | Molecule | NF-kB phosphorylation vs control [1, 9] | PPARγ DNA binding activity vs control ([2]; 3 h treatment) | SOD2 protein levels vs control [3] | PPARγ DNA binding activity vs control [4, 9] | NF-kB phosphorylation vs control ([1]; 3 h treatment) | Cellular AOx capacity vs control [5, 9] | Cellular AOx capacity vs control [6] | PPARγ DNA binding activity vs control ([4]; 3 h treatment) | Cellular AOx capacity vs control ([5]; 3 h treatment, CBD 95 ng/ml, VitA 1.2 μM, tributyrin 10 μM, beta-caryophyllene 100 ng/ml) | PPARγ DNA binding activity vs control [2, 9] | Cellular glucose levels vs control [7] | Cellular glucose levels vs control [8]
1 | C=C1CC/C=C(\C)CC[C@@H]2[C@@H]1CC2(C)C [BCP, beta-caryophyllene] | significant values in reducing NF-kB phosphorylation | significance values greater than control group | – | – | – | – | – | – | – | – | – | –
2 | cannabidiol [CBD] | – | – | significance value less the control | values of greater significance than the control | the only one with significant value among the ingredients | expressed significance value | expressed results with significance value | – | – | – | – | –
3 | CCCCCCCCCCCCCCCC(=O)OC/C=C(C)/C=C/C=C(C)/C=C/C1=C(C)CCCC1(C)C [vitamin A, Retinyl palmitate] | – | significance values greater than control group | – | – | – | – | showed an antioxidant capacity | significance value greater than control group | expressed significance values | – | – | –
4 | CCCC(=O)OCC(COC(=O)CCC)OC(=O)CCC [tributyrin, Tributyrin] | significant values in reducing NF-kB phosphorylation | significance values greater than control group | significance value less the control | values of greater significance than the control | – | – | – | – | – | significance value greater than control group | increases cell glucose | increases cell glucose
